We go through 2 compounds from US11707070B2, “Inhibition of fungal growth by manganese depletion” (Chr. Hansen A/S, priority 2018, dated 2023).

Read-outs that look alike come from different tables or passages of the source.

For data set [1], the system named is Debaryomyces hansenii. The experiment in a line: Yeast growth in yogurt with EDTA or scavenger (Example 9). It is filed as cell-based. Conditions: added to reference yogurt; FIG. 14. How it is done:
The concentration of EDTA ranges from 14 mg/ml (top row), 7.10 mg/ml, 3.55 mg/ml, 1.78 mg/ml, 0.89 mg/ml, 0.44 mg/ml, 0.22 mg/ml to 0 mg/ml (bottom row).

Another data set has as its system Debaromyces hansenii. On the procedure: Absorbance at 600 nm was measured after 7 days of incubation at 17° C., compared to reference. Samples made in triplicate.
Two concentrations of manganese were used, 6 ppm and 0.6 ppm, in example 8.

Data set [2] deals with Debaryomyces hansenii. Conditions: chemically defined medium, pH 6.5 or 4.5; 6 days at 17° C.; FIGS. 1 and 2.
Protocol: Two D. hansenii isolated from spoiled yogurt (strain 1) and quark (strain 2), respectively, were used.
The minimal medium contains biotin 2 μg/L, calcium pantothenate 400 μg/L, folic acid 2 μg/L, inositol 2 mg/L, nicotinic acid 400 μg/L, p-amino benzoic acid 200 μg/L, pyridoxine 400 μg/L, riboflavin 200 μg/L, thiamine 400 μg/L, Boric acid 500 μg/L, copper sulfate 40 μg/L, potassium iodide 100 μg/L, ferric chloride 200 μg/L, sodium molybdate 200 μg/L, zinc sulfate 400 μg/L, potassium phosphate monobasic 0.5 g/L, potassium phosphate dibasic 0.5 g/L, magnesium sulfate 0.5 g/L, sodium chloride 0.1 g/L, calcium chloride 0.2 g/L, glucose 20 g/L, ammonium sulfate 5 g/L.
Two different pH were tested: pH 6.5 and 4.5.
The strains were inoculated to 150 μl of the different medium in a 96 well plate. The plates were incubated at 17° C. for several days and the growth of the yeast strains was followed by measuring absorbance at 600 nm in a plate reader.
The subject of a further data set is Cryptococcus fragicola. The data set can be described thus: Yeast agar-assay on fermented milk plates (Example 6). It is filed as cell-based. Conditions: added manganese on fermented milk agar plates. How it is done:
Influence of manganese on the inhibitory effect against different molds were evaluated. An agar-assay resembling the manufacturing process and production of fermented milk products was used. L. rhamnosus and L. paracasei were used together as manganese scavenging agents. Reduced-fat (1.5% w/v) homogenized milk was heat-treated at 90±1° C. for 20 min and cooled immediately. A commercial starter culture (Streptococcus thermophilus and Lactobacillus delbrueckii subsp. bulgaricus) was inoculated at 0.02% (v/w) in 3 L buckets. […] The fermented milk products were divided into 200 mL bottles and cooled down. […] All the fermented milk samples were warmed to a temperature of 40° C. and added 40 ml of a 5% sterile agar solution that had been melted and cooled down to 60° C. This solution of fermented milk and agar was then poured into sterile Petri dishes and the plates were dried in a LAF bench for 30 min. Three target contaminants, including two Debaryomyces hansenii (strain 1 and strain 2) and one Cryptococcus fragicola were spotted in concentrations of 10^3, 10^2 and 10^1 CFU/spot. Plates were incubated at 7±1° C. and regularly examined for the growth of yeast.

Take `O=C(O)CN(CCN(CC(=O)O)CC(=O)O)CC(=O)O` [EDTA, ethylenediaminetetraacetic acid]: the “concentration reproducing the inhibition of manganese scavenging agent 1” value in the data set with Debaryomyces hansenii [1] is given as “up to 0.89 mg/ml”. Further, the “concentration at which cells stop growing (inhibitory effect)” value was 0.05 mg/mL in the data set on Debaromyces hansenii (FIG. 12, aqueous phase filtered with 1.2 μm filter, 7 days at 17° C.) and 0.05 mg/mL with Debaromyces hansenii (FIG. 13, aqueous phase filtered with 0.2 μm filter, absence of manganese (0.6 ppm)). The “effect on growth of adding 0.6 ppm of manganese together with 0.05 mg/ml EDTA” value in the data set with Debaromyces hansenii (FIG. 13, 0.05 mg/ml EDTA + 0.6 ppm manganese) is recorded as “restores the growth”.

Regarding `[Mn+2]` [manganese], the “manganese concentration below which growth is inhibited” value with Debaryomyces hansenii [2] was less than 0.01 ppm. Besides, the “manganese concentration with inhibitory/toxic effect on yeast growth” value with Debaromyces hansenii (Example 8) was 6 ppm. Moreover, the “Manganese concentration that seemed to inhibit the growth” value in the data set with Cryptococcus fragicola is 6 ppm.
